Literature values as cited in patent US20210023029A1, “EDASALONEXENT DOSING REGIMEN FOR TREATING MUSCULAR DYSTROPHY” (Catabasis Pharmaceuticals, Inc., priority 2017, published 2021).

System: mdx mice
Conditions: long-term studies on mdx mice; cited from earlier work

CC/C=C\C/C=C\C/C=C\C/C=C\C/C=C\CCCC(=O)NCCNC(=O)c1ccccc1O [CAT-1041]
muscle function, skeletal muscle weight and muscle fibrosis: preserves muscle function, increases skeletal muscle weight, and reduces muscle fibrosis
